This experiment deals with lymphocytic leukemia P388. The experiment is described as follows: Lymphocytic leukemia P388 test. In kind it is in vivo, BDF1 mice.
Where [1] appears, read: Dose 25 mg/kg intraperitoneally on days 1, 5 and 9.
Setting [2] is: Dose 50 mg/kg intraperitoneally on days 1, 5 and 9.
The mark [3] stands for this setting: Dose 100 mg/kg intraperitoneally on days 1, 5 and 9.
Setting [4] is: Dose 200 mg/kg intraperitoneally on days 1, 5 and 9.
The mark [5] stands for this setting: Dose 6.25 mg/kg intraperitoneally on days 1, 5 and 9.
Setting [6] is: Dose 12.5 mg/kg intraperitoneally on days 1, 5 and 9.
The mark [7] stands for this setting: Dose 12.25 mg/kg intraperitoneally on days 1, 5 and 9.
The mark [8] stands for this setting: Dose 3.12 mg/kg intraperitoneally on days 1, 5 and 9.

Regarding `N#Cc1ccc(C(=O)N2CCN=C2N(N=Cc2c3ccccc3c(C=NN(C(=O)c3ccc(C#N)cc3)C3=NCCN3C(=O)c3ccc(C#N)cc3)c3ccccc23)C(=O)c2ccc(C#N)cc2)cc1` [2,2'-(9,10-Anthracenediyldimethylidyne)bis[1-[1-(4-cyanobenzoyl)-4,5-dihydro-1H-imidazol-2-yl] hydrazide] of 4-cyanobenzoic acid], the “Median Survival” value was 12 days under setting [1], 12.5 days under setting [2], 14.5 days under setting [3] and 14.5 days under setting [4]. The “T/C x 100 %” value by setting is: under setting [1], 109%; under setting [2], 114%; under setting [3], 132%; under setting [4], 132%.
Turning to `CCCCCCc1ccc(C(=O)N2CCN=C2N(N=Cc2c3ccccc3c(C=NN(C(=O)c3ccc(CCCCCC)cc3)C3=NCCN3C(=O)c3ccc(CCCCCC)cc3)c3ccccc23)C(=O)c2ccc(CCCCCC)cc2)cc1` [2,2'-(9,10-Anthracenediyldimethylidyne)bis[1-[1-(4-hexylbenzoyl)-4,5-dihydro-1H-imidazol-2-yl]hydra-zide] of 4-hexylbenzoic acid], under setting [4], the “Median Survival” value was found to be 14 days and the “T/C x 100 %” value came out at 127%.
Consider `CCCC(=O)N1CCN=C1N(N=Cc1c2ccccc2c(C=NN(C(=O)CCC)C2=NCCN2C(=O)CCC)c2ccccc12)C(=O)CCC` [2,2'-(9,10-Anthracenediyldimethylidyne)bis[1-[4,5-dihydro-1-(1-oxobutyl)-1H-imidazol-2-yl]hydra-zide] of butanoic acid], for which, under setting [4], the “Median Survival” value is 11.5 days and the “T/C x 100 %” value was 105%.
As for `O=C(c1ccc2ccccc2c1)N1CCN=C1N(N=Cc1c2ccccc2c(C=NN(C(=O)c2ccc3ccccc3c2)C2=NCCN2C(=O)c2ccc3ccccc3c2)c2ccccc12)C(=O)c1ccc2ccccc2c1` [2,2'-(9,10-Anthracenediyldimethylidyne)bis[1-[4,5-dihydro-1-(2-naphthalenylcarbonyl)-1H-imidazol-2-yl]-hydrazide] of 2-naphthoic acid], under setting [3], the “Median Survival” value is 12 days and the “T/C x 100 %” value is 104%.
As for `COc1ccc(C(=O)N2CCN=C2N(N=Cc2c3ccccc3c(C=NN(C(=O)c3ccc(OC)cc3)C3=NCCN3C(=O)c3ccc(OC)cc3)c3ccccc23)C(=O)c2ccc(OC)cc2)cc1` [2,2'-(9,10-Anthracenediyldimethylidyne)bis[1-[4,5-dihydro-1-(4-methoxybenzoyl)-1H-imidazol-2-yl] hydrazide] of 4-methoxybenzoic acid], under setting [4], the “Median Survival” value is 16 days and the “T/C x 100 %” value amounted to 139%.
In the same order, the values of `O=C(c1c(F)c(F)c(F)c(F)c1F)N1CCN=C1N(N=Cc1c2ccccc2c(C=NN(C(=O)c2c(F)c(F)c(F)c(F)c2F)C2=NCCN2C(=O)c2c(F)c(F)c(F)c(F)c2F)c2ccccc12)C(=O)c1c(F)c(F)c(F)c(F)c1F` [2,2'-(9,10-Anthracenediyldimethylidyne)bis[1-[4,5-dihydro-1-(pentafluoro-1H-imidazol-2-yl)hydra-zide] of pentafluorobenzoic acid] are 12 days and 109%.
As for `CC(=O)N1CCN=C1NN=Cc1c2ccccc2c(C=NNC2=NCCN2C(C)=O)c2ccccc12` [2,2'-[9,10-Anthracenediylbis(methylidyne-1-hydrazinyl-2-ylidene)]bis[1-acetyl-4,5-dihydro-1H-imidazole], the “Median Survival” value is, setting by setting: under setting [5], 10.5 days; under setting [6], 10.5 days; under setting [1], 10.5 days; under setting [2], 11 days. Also, the “T/C x 100 %” value was 105% under setting [5], 105% under setting [6], 105% under setting [1] and 110% under setting [2].
For the compound `O=CN1CCN=C1N(C=O)N=Cc1c2ccccc2c(C=NN(C=O)C2=NCCN2C=O)c2ccccc12` [2,2'-[9,10-Anthracenediylbis[methylidyne(1-formyl-1-hydrazinyl-2-ylidene)]]bis[4,5-dihydro-1H-imidazole-1-carboxaldehyde]], the “Median Survival” value under setting [6] was found to be 10.5 days, the “Median Survival” value under setting [2] is 11 days and the “Median Survival” value under setting [4] came to 11.5 days. Moreover, the “T/C x 100 %” value under setting [6] came out at 105%, the “T/C x 100 %” value under setting [2] is recorded as 110% and the “T/C x 100 %” value under setting [4] is 115%.
Consider `CC(C)(C)OC(=O)N1CCN=C1NN=Cc1c2ccccc2c(C=NNC2=NCCN2C(=O)OC(C)(C)C)c2ccccc12` [2,2-(9,10-Anthracenediylbis(methylidyne-1-hydrazinyl-2-ylidene)]bis[4,5-dihydro]-1H-imidazole-1-carboxylic Acid], Bis(1,1-dimethylethyl) Ester], for which the “Median Survival” value is, setting by setting: under setting [7], 17.5 days; under setting [1], 22 days; under setting [2], 31.5 days. In addition, the “T/C x 100 %” value was 152% under setting [7], 191% under setting [1] and 274% under setting [2].
As to `COCC(=O)N1CCN=C1N(N=Cc1c2ccccc2c(C=NN(C(=O)COC)C2=NCCN2C(=O)COC)c2ccccc12)C(=O)COC` [2,2-(9,10-Anthracenediyldimethylidyne)bis[1-[4,5-dihydro-1-(methoxyacetyl)-1H-imidazo)-2-yl]hydrazide] of Methoxyacetic Acid], the “Median Survival” value reads like this: under setting [8], 14.5 days; under setting [6], 16.5 days; under setting [2], 16.5 days; under setting [4], 16.5 days. Besides, the “T/C x 100 %” value is listed as 132% under setting [8], 150% under setting [6], 150% under setting [2] and 150% under setting [4].
`Cc1ccc(S(=O)(=O)N2CCN=C2NN=Cc2c3ccccc3c(C=NNC3=NCCN3S(=O)(=O)c3ccc(C)cc3)c3ccccc23)cc1` [2,2-[9,10-Anthracenediylbis(methylidyne-1-hydrazinyl-2-ylidene)]bis[4,5-dihydro-1-[(4-methylphenyl)sulfonyl]-1H-imidazole]]: under setting [2], the “Median Survival” value was found to be 14 days and the “T/C x 100 %” value worked out at 127%. Further, under setting [4], the “Median Survival” value is 14 days and the “T/C x 100 %” value amounted to 127%.
In the case of `O=CN1CCN=C1NN=Cc1c2ccccc2c(C=NNC2=NCCN2C=O)c2ccccc12` [2,2-[9,10-Anthracenediylbis(methylidyne-1-hydrazinyl-2-ylidene)]bis[4,5-dihydro]-1H-imidazole-1-carboxaldehyde], under setting [2], the “Median Survival” value amounted to 12 days and the “T/C x 100 %” value is 120%. For the same compound, under setting [4], the “Median Survival” value stood at 12 days and the “T/C x 100 %” value was 120%.
On to `O=C(O)C1CCCCC1C(=O)N1CCN=C1NN=Cc1c2ccccc2c(C=NNC2=NCCN2C(=O)C2CCCCC2C(=O)O)c2ccccc12` (centres unmarked) [2,2-[9,10-Anthracenediylbis[methylidyne-1-hydrazinyl-2-ylidene(4,5-dihydro-1H-imidazole-2,1-diyl)-carbonyl]]biscyclohexanecarboxylic Acid], for which the “Median Survival” value under setting [5] is 13.5 days, the “Median Survival” value under setting [6] was determined as 16 days and the “Median Survival” value under setting [1] was determined as 18 days. Further, the “T/C x 100 %” value under setting [5] came to 123%, the “T/C x 100 %” value under setting [6] is reported as 145% and the “T/C x 100 %” value under setting [1] amounted to 164%.
In the case of `O=C(O)CCCC(=O)N1CCN=C1NN=Cc1c2ccccc2c(C=NNC2=NCCN2C(=O)CCCC(=O)O)c2ccccc12` [2,2-[9,10-Anthracenedlylbis(methylidyne-1-hydrazinyl-2-ylidene)]bis[4,5-dihydro-delta-oxo-1H-imidazole-1-pentanoic Acid]], the “Median Survival” value runs as follows: under setting [8], 15.5 days; under setting [6], 18 days; under setting [2], 19 days; under setting [4], 23 days. Moreover, the “T/C x 100 %” value runs as follows: under setting [8], 141%; under setting [6], 164%; under setting [2], 173%; under setting [4], 209%.
As to “[2-[[[10-[((4,5-Dihydro-1H-imidazol-2-yl)ethylhydrazono]methyl]-9-anthracenyl]methylene] hydrazino]-4,5-dihydro-1H-imidazol-1-yl]phosphonic Acid, Hydroiodide”, the “Median Survival” value by setting is: (mouse, in vivo, ip, 0.4 mg/kg) 18 days; (mouse, in vivo, ip, 0.8 mg/kg) 21.5 days; (mouse, in vivo, ip, 1.6 mg/kg) 18 days; (mouse, in vivo, ip, 3.2 mg/kg) 22.5 days; (mouse, in vivo, ip, 6.3 mg/kg) 24 days; (mouse, in vivo, ip, 12.5 mg/kg) 25 days. For the same compound, the “Median Survival” value (mouse, in vivo, ip, 25 mg/kg) was 25 days and the “Median Survival” value (mouse, in vivo, ip, 50 mg/kg) was 25.5 days. The “T/C x 100 %” value was determined as 164% (mouse, in vivo, ip, 0.4 mg/kg); 195% (mouse, in vivo, ip, 0.8 mg/kg); 164% (mouse, in vivo, ip, 1.6 mg/kg); 205% (mouse, in vivo, ip, 3.2 mg/kg); 218% (mouse, in vivo, ip, 6.3 mg/kg); 227% (mouse, in vivo, ip, 12.5 mg/kg). In addition, the “T/C x 100 %” value (mouse, in vivo, ip, 25 mg/kg) is given as 227% and the “T/C x 100 %” value (mouse, in vivo, ip, 50 mg/kg) was found to be 232%.
As for “[9,10-Anthracenedlylbis(methylidyne-1-hydrazinyl-2-ylidene (4,5-dihydro-1H-imidazol-2,1-diyl)]]-phosphonic Acid Hydroiodide”, the “Median Survival” value runs as follows: (mouse, in vivo, ip, 0.4 mg/kg) 21 days; (mouse, in vivo, ip, 0.8 mg/kg) 19 days; (mouse, in vivo, ip, 1.6 mg/kg) 24.5 days; (mouse, in vivo, ip, 3.2 mg/kg) 24 days; (mouse, in vivo, ip, 6.3 mg/kg) 22 days; (mouse, in vivo, ip, 12.5 mg/kg) 53.5 days. Also, under “mouse, in vivo, ip, 25 mg/kg”, the “Median Survival” value is more than 60 days. The “T/C x 100 %” value was 191% (mouse, in vivo, ip, 0.4 mg/kg); 173% (mouse, in vivo, ip, 0.8 mg/kg); 223% (mouse, in vivo, ip, 1.6 mg/kg); 218% (mouse, in vivo, ip, 3.2 mg/kg); 200% (mouse, in vivo, ip, 6.3 mg/kg); 486% (mouse, in vivo, ip, 12.5 mg/kg). The “T/C x 100 %” value (mouse, in vivo, ip, 25 mg/kg) was more than 545%.

Source of the values: EP0338372A2, “Solubilized pro-drugs” (AMERICAN CYANAMID COMPANY, priority 1988, dated 1989).
